These results are taken from patent US6277847A, “Herbicidal isoindolinonyl-and 3,4-dihydroisoquinolonyl-substituted heterocycles” (FMC Corporation, priority 2000, dated 2001).

Assay type in all cases: in vivo
For assay [1], the system named is field corn (Zea mays var. Pioneer 3732). Put plainly: pre-emergence herbicidal activity, corn. The following applies: 1 kg/Ha, about fourteen days, read-out: pre-emergence herbicidal activity (% control) CRN. The essentials:
(§1)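 Seeds sown in soil flats and sprayed pre-emergence with a water/acetone solution of test compound at 1 kg/Ha; untreated controls kept alongside. Phytotoxicity scored after about fourteen days as percent control, 0 being no effect and 100 complete control.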

Assay [2] has as its system wheat (Triticum aestivum var. Lew). Put plainly: post-emergence herbicidal activity, wheat. The following applies: 1 Kg/Ha, about fourteen days, read-out: post-emergence herbicidal activity (% control) WHT. The essentials:
(§2)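 Percent control (0–100) was rated about fourteen days after spraying of emerged, germinated plants in flats with compound dissolved in water/acetone at 1 Kg/Ha.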

Assay [3] deals with velvetleaf (Abutilon theophrasti). The assay is described as follows: post-emergence herbicidal activity, velvetleaf. The settings on record: 1 Kg/Ha, about fourteen days, read-out: post-emergence herbicidal activity (% control) ABUTH. An outline of the steps: as §2
In assay [4] the test system is soybean (Glycine max -- var. Winchester). The assay is described as follows: post-emergence herbicidal activity, soybean. The settings on record: 1 Kg/Ha, about fourteen days, read-out: post-emergence herbicidal activity (% control) SOY. An outline of the steps: as §2
The test system of assay [5] is blackgrass (Aloepecurus myosuroides). Put plainly: pre-emergence herbicidal activity, blackgrass. The following applies: Alopecurus myosuroides, 1 kg/Ha, about fourteen days, read-out: pre-emergence herbicidal activity (% control) ALOMY. The essentials: as §1
The test system of assay [6] is Johnsongrass (Sorghum halepense). Put plainly: post-emergence herbicidal activity, johnsongrass. The settings on record: 1 Kg/Ha, about fourteen days, read-out: post-emergence herbicidal activity (% control) SORHA. The essentials: as §2
Assay [7] concerns common cocklebur (Xanthium strumarium L.). Put plainly: post-emergence herbicidal activity, cocklebur. The following applies: 1 Kg/Ha, about fourteen days, read-out: post-emergence herbicidal activity (% control) XANPE. The essentials: as §2
Assay [8] has the same test system. The assay is described as follows: pre-emergence herbicidal activity, cocklebur. The settings on record: 1 kg/Ha, about fourteen days, read-out: pre-emergence herbicidal activity (% control) XANPE. The essentials:
as §1

Assay [9] concerns velvetleaf (Abutilon theophrasti). Put plainly: pre-emergence herbicidal activity, velvetleaf. The following applies: 1 kg/Ha, about fourteen days, read-out: pre-emergence herbicidal activity (% control) ABUTH. The essentials: as §1
Assay [10] concerns green foxtail (Setaria viridis). The assay is described as follows: pre-emergence herbicidal activity, green foxtail. The following applies: 1 kg/Ha, about fourteen days, read-out: pre-emergence herbicidal activity (% control) SETVI. An outline of the steps: as §1
In assay [11] the test system is blackgrass (Aloepecurus myosuroides). The assay is described as follows: post-emergence herbicidal activity, blackgrass. The following applies: Alopecurus myosuroides, 1 Kg/Ha, about fourteen days, read-out: post-emergence herbicidal activity (% control) ALOMY. The essentials: as §2
Assay [12] deals with wheat (Triticum aestivum var. Lew). The assay is described as follows: pre-emergence herbicidal activity, wheat. The following applies: 1 kg/Ha, about fourteen days, read-out: pre-emergence herbicidal activity (% control) WHT. An outline of the steps: as §1
Assay [13] has as its system common chickweed (Stellaria media). Put plainly: pre-emergence herbicidal activity, chickweed. The settings on record: 1 kg/Ha, about fourteen days, read-out: pre-emergence herbicidal activity (% control) STEME. The essentials:
as §1

The subject of assay [14] is morningglory (Ipomea lacunosa or Ipomea hederacea). The assay is described as follows: pre-emergence herbicidal activity, morningglory. The settings on record: Ipomoea, 1 kg/Ha, about fourteen days, read-out: pre-emergence herbicidal activity (% control) IPOSS. An outline of the steps:
as §1

The subject of assay [15] is soybean (Glycine max -- var. Winchester). Put plainly: pre-emergence herbicidal activity, soybean. The settings on record: 1 kg/Ha, about fourteen days, read-out: pre-emergence herbicidal activity (% control) SOY. The essentials:
as §1

Assay [16] relates to field corn (Zea mays var. Pioneer 3732). The assay is described as follows: post-emergence herbicidal activity, corn. The settings on record: 1 Kg/Ha, about fourteen days, read-out: post-emergence herbicidal activity (% control) CRN. The essentials:
as §2

The test system of assay [17] is common chickweed (Stellaria media). Put plainly: post-emergence herbicidal activity, chickweed. The settings on record: 1 Kg/Ha, about fourteen days, read-out: post-emergence herbicidal activity (% control) STEME. An outline of the steps:
as §2

Assay [18] deals with Johnsongrass (Sorghum halepense). The assay is described as follows: pre-emergence herbicidal activity, johnsongrass. The following applies: 1 kg/Ha, about fourteen days, read-out: pre-emergence herbicidal activity (% control) SORHA. The essentials: as §1
The subject of assay [19] is green foxtail (Setaria viridis). The assay is described as follows: post-emergence herbicidal activity, green foxtail. The following applies: 1 Kg/Ha, about fourteen days, read-out: post-emergence herbicidal activity (% control) SETVI. An outline of the steps:
as §2

The test system of assay [20] is morningglory (Ipomea lacunosa or Ipomea hederacea). The assay is described as follows: post-emergence herbicidal activity, morningglory. The settings on record: Ipomoea, 1 Kg/Ha, about fourteen days, read-out: post-emergence herbicidal activity (% control) IPOSS. The essentials:
as §2

As to `CC(C)N1Cc2c(-n3c(=O)cc(C(F)(F)F)n(C)c3=O)ccc(Cl)c2C1=O` [Compound 3, 3-[7-chloro-2-(1-methylethyl)isoindolin-1-on-4-yl]-1-methyl-6-trifluoromethyl-2,4(1H,3H)-pyrimidinedione], the activity at 1000 g/ha in [1] amounted to 100%; in [2] it was 100%; in [3], 100%; in [4], 95%; in assay [5] it was 100%; in assay [6], 100%. For the same molecule, the activity at 1000 g/ha in assay [7], in assay [8], in [9], in assay [10], in assay [11] and in assay [12] was 100% throughout. The activity at 1000 g/ha in assay [13], in assay [14], in [15], in [16], in assay [17] and in [18] was 100% in each case. Further, the activity at 1000 g/ha in [19] and in assay [20] was 100% each time.

For the molecule `CCN1Cc2c(c(Cl)cc(Cl)c2-n2c(=O)cc(C(F)(F)F)n(C)c2=O)C1=O` [Compound 5], the activity at 1000 g/ha in assay [1] is 100%; in assay [2], 100%; in assay [3], 100%; in [4] it was 95%; in [5], 100%; in [6] it was 100%. In addition, the activity at 1000 g/ha in [7], in assay [8], in assay [9], in assay [10], in [11] and in assay [12] was 100% in each case. Further, the activity at 1000 g/ha in [13], in assay [14], in assay [15], in assay [16], in assay [17] and in assay [18] was 100% each time. Also, the activity at 1000 g/ha in assay [19] and in assay [20] was 100% each time.

For `CC(C)N1Cc2c(c(Cl)cc(Cl)c2-n2c(=O)cc(C(F)(F)F)n(C)c2=O)C1=O` [Compound 4], the activity at 1000 g/ha in assay [1], in assay [2], in [3], in assay [4], in [5] and in assay [6] was 100% throughout. Further, the activity at 1000 g/ha in [7], in assay [8], in [9], in [10], in [11] and in [12] was 100% throughout. Besides, the activity at 1000 g/ha in [13], in [14], in assay [15], in assay [16], in [17] and in [18] was 100% in each case. In addition, the activity at 1000 g/ha in [19] and in assay [20] was 100% each time.

In the case of `Cn1c(C(F)(F)F)cc(=O)n(-c2c(Cl)cc(Cl)c3c2CN(C(C)(C)C)C3=O)c1=O` [Compound 6], the activity at 1000 g/ha in assay [1] was 100%; in assay [2] it was 80%; in assay [3], 100%; in assay [4] it was 90%; in [5], 100%; in assay [6] it was 100%. Also, the activity at 1000 g/ha in assay [7], in [8], in assay [9], in assay [10], in assay [11] and in [12] was 100% throughout. Also, the activity at 1000 g/ha in [13], in assay [14], in assay [15], in [16], in assay [17] and in [18] was 100% throughout. In addition, the values for the activity at 1000 g/ha in assay [19] and in assay [20] were 100% and 95%, respectively.

`CC(C)N1Cc2c(ccc(Cl)c2-n2c(=O)cc(C(F)(F)F)n(C)c2=O)C1=O` [Compound 1]: the activity at 1000 g/ha in assay [1] was found to be 95%; in assay [2], 70%; in assay [3] it was 100%; in [4], 95%; in [5] it was 80%; in assay [6], 100%. Further, the activity at 1000 g/ha in [7] came out at 60%; in assay [8] it was 70%; in assay [9], 100%; in [10], 100%; in assay [11] it was 75%; in assay [12], 80%. Besides, the activity at 1000 g/ha in assay [13] worked out at 90%; in assay [14], 100%; in assay [15] it was 90%; in [16] it was 90%; in assay [17], 50%; in assay [18] it was 90%. Moreover, the values for the activity at 1000 g/ha in [19] and in [20] were 80% and 70%, respectively.

Take `COCCN1Cc2c(-n3c(=O)cc(C(F)(F)F)n(C)c3=O)ccc(Cl)c2C1=O` [Compound 23]: the activity at 1000 g/ha in [1], in assay [2], in assay [3], in assay [4], in assay [6] and in assay [7] was 100% throughout. Further, the activity at 1000 g/ha in assay [8], in assay [9], in assay [10], in [11], in assay [12] and in assay [13] was 100% each time. For the same molecule, the activity at 1000 g/ha in assay [14] was 100%; in [15], 100%; in assay [16], 80%; in [17] it was 100%; in [19], 100%; in [20], 100%.

With `Cn1c(C(F)(F)F)cc(=O)n(-c2ccc(Cl)c3c2CN(Cc2ccc(Cl)cc2)C3=O)c1=O` [Compound 24], the activity at 1000 g/ha in assay [1] amounted to 50%; in assay [2], 30%; in [3] it was 100%; in [4] it was 60%; in [6] it was 40%; in assay [7], 80%. The activity at 1000 g/ha came to 10% in assay [8]; 100% in assay [9]; 95% in assay [10]; 70% in [11]; 30% in [12]; 70% in assay [13]. The activity at 1000 g/ha was 30% in [14]; 10% in assay [15]; 70% in assay [16]; 100% in assay [17]; 70% in [19]; 30% in assay [20].
